Results: patent US20170165286A1, “COMPOSITIONS AND METHODS FOR TREATING DIABETES AND LIVER DISEASES” (Cempra Pharmaceuticals, Inc., priority 2014, published 2017)
Entries after “also recorded” stand apart in the source; their conditions may differ.

What was measured:
[1] = test system: STAM mice; test: NASH-HCC (STAM) model: body weight, liver weight, macroscopic liver appearance; assay type: in vivo; settings: for Liver Weight / Liver-to-body Weight Ratio: 5-9 wks
Procedure: (§1) NASH-HCC (STAM™) Model. C57BL/6 (15-day-pregnant female) mice are obtained from Charles River Laboratories Japan (Kanagawa, Japan). Male pups are selected for the study. NASH is induced in male mice by a single subcutaneous injection of 200 μg streptozotocin (STZ, Sigma-Aldrich, USA) solution 2 days after birth, followed by feeding a HFD (57 kcal % fat, cat#: HFD32, CLEA Japan, Japan) beginning at 4 weeks of age. At 5 weeks of age, mice are divided into a control group and one or more treated group (generally 8 mice per group). Animals are sacrificed at 9 weeks of age, and biochemical, histological, and gene expression analyses are performed.
All animals used in the study are housed and cared for in accordance with local regulations. Test animals are maintained in an SPF facility under controlled conditions of temperature (23±2° C.), humidity (45±10%), lighting (12-hour artificial light and dark cycles; light from 8:00 to 20:00) and air exchange. A high pressure (20±4 Pa) is maintained in the experimental room. Test animals are housed in polycarbonate cages KN-600 (Natsume Seisakusho, Japan) with a maximum of 4 mice per cage. Sterilized PULMASμ (Material Research Center, Japan) are used for bedding and replaced once a week. Sterilized solid HFD is provided ad libitum, being placed in the metal lid on top of the cage. Pure water is provided ad libitum from a water bottle equipped with a rubber stopper and a sipper tube. Water bottles are replaced once a week, cleaned and sterilized in autoclave and reused.
Generally, elevated NAFLD activity score (NAS)≧5, steatosis, and elevated ALT is evident by week 6, NASH is evident by week 7, perisinusoidal fibrosis is evident by week 9, nodules are evident by week 12, and HCC is evident by week 16. It is to be understood herein that perisinusoidal fibrosis in mice is the model for NASH in humans (Fujii et al., Med Mol Morphol 46: 141-152 (2013)).
(§2) During weeks 5-9 (starting at day 35±2), test compound is administered (generally orally) at various doses diluted to 10 mL/kg and according to various dosing protocols to treatment groups (8 mice each) while a second group (8 mice) is administered vehicle only. Animals are sacrificed at 9 weeks.
(§3) Illustrative dose response test groups. Group 1-Normal. Eight normal mice are fed with a normal diet ad libitum without any treatment until 9 weeks of age. Group 2-Vehicle. Eight NASH mice are orally administered vehicle (0.5% w/v methylcellulose+0.2% Tween®80) in a volume of 10 mL/kg twice daily from 5 to 9 week of age. Group 3-solithromycin 5 mg/kg. Eight NASH mice are orally administered vehicle supplemented with solithromycin at a dose of 5 mg/kg in the morning and the vehicle in the evening (5 mg/kg/day) from 5 to 9 weeks of age. Group 4-solithromycin 10 mg/kg. Eight NASH mice are orally administered vehicle supplemented with solithromycin at a dose of 10 mg/kg twice daily (20 mg/kg/day) from 5 to 9 weeks of age. Group 5-solithromycin 25 mg/kg. Eight NASH mice are orally administered vehicle supplemented with solithromycin at a dose of 25 mg/kg twice daily (50 mg/kg/day) from 5 to 9 weeks of age. Group 6-solithromycin 50 mg/kg. Eight NASH mice are orally administered vehicle supplemented with solithromycin at a dose of 50 mg/kg once daily (50 mg/kg/day) from 5 to 9 weeks of age.

[2] = test system: human FXR; test: FXR reporter cell assays (agonist and antagonist); assay type: cell-based; settings: reporter cells, from 30 μM, 1:3 dilutions
Procedure: FXR Signal Pathway. […] Solithromycin is tested in reporter cell assays expressing a hybrid FXR receptor (Indigo Biosciences, PA). Agonist and antagonist activity is measured. Solithromycin is tested starting at 30 μM and continuing with 1:3 dilutions. […] Without being bound by theory, it is believed herein that dependence upon the FXR pathway for activity in treating the diseases described herein may lead to increased triglycerides (TGs) and low density lipids (LDL) as an unwanted side effects. For example, patients with various forms of FLD may be at risk for cardiovascular disease, which may be aggravated by increased triglycerides and low density lipids.

[3] = test system: STAM mice; test: STAM model: whole blood and plasma biochemistry; assay type: in vivo; settings: for Whole Blood Glucose Levels: non-fasting, 5-9 wks
Procedure: as §1, §2
Measurement of whole blood and plasma biochemistry. Non-fasting blood glucose was measured in whole blood using LIFE CHECK (EIDIA, Japan). For plasma biochemistry, blood was collected in polypropylene tubes with anticoagulant (Novo-Heparin, Mochida Pharmaceutical, Japan) and centrifuged at 1,000×g for 15 minutes at 4° C. The supernatant was collected and stored at −80° C. until use. Plasma ALT levels were measured by FUJI DRI-CHEM 7000 (Fujifilm, Japan). Plasma insulin, MIF and IL-22 were quantified by Ultra Sensitive Mouse Insulin ELISA Kit (Morinaga Institute of Biological science, Japan), Mouse Macrophage Migration Inhibitory Factor (MIF) ELISA (Kamiya Biomedical, USA), Quantikine ELISA Mouse/Rat IL-22 Immunoassay kit (R&D Systems, USA), respectively.
as §3

[4] = 5 mg/kg q.d. oral, listed as Solithromycin, 5 mg/kg
[5] = 10 mg/kg b.i.d. oral, listed as Solithromycin, 10 mg/kg
[6] = 25 mg/kg b.i.d. oral, listed as Solithromycin, 25 mg/kg

CC[C@H]1OC(=O)[C@@](C)(F)C(=O)[C@H](C)[C@@H](O[C@@H]2O[C@H](C)C[C@H](N(C)C)[C@H]2O)[C@](C)(OC)C[C@@H](C)C(=O)[C@H](C)[C@H]2N(CCCCn3cc(-c4cccc(N)c4)nn3)C(=O)O[C@]12C [solithromycin]
Liver Weight ([1]; 5 mg/kg q.d. oral, 5 mg/kg): no statistically significant difference | Liver-to-body Weight Ratio ([1]; 5 mg/kg q.d. oral, 5 mg/kg): no statistically significant differences | Liver Weight [1, 4]: 1335 ± 185 mg | Liver-to-body Weight Ratio [1, 4]: 7.0 ± 0.8% | Liver Weight ([1]; 10 mg/kg b.i.d. oral, 10 mg/kg): significant reductions | Liver-to-body Weight Ratio ([1]; 10 mg/kg b.i.d. oral, 10 mg/kg): no statistically significant differences | Liver Weight [1, 5]: 1187 ± 134 mg | Liver-to-body Weight Ratio [1, 5]: 6.7 ± 0.8% | Liver Weight ([1]; 25 mg/kg b.i.d. oral, 25 mg/kg): significant reductions | Liver-to-body Weight Ratio ([1]; 25 mg/kg b.i.d. oral, 25 mg/kg): significant decrease | Liver Weight [1, 6]: 1087 ± 97 mg | Liver-to-body Weight Ratio [1, 6]: 5.9 ± 0.7 % | Liver Weight ([1]; 50 mg/kg q.d. oral): 1242 ± 141 mg | Liver-to-body Weight Ratio ([1]; 50 mg/kg q.d. oral): 6.0 ± 0.7 % | Mean body weight on the day of sacrifice compared to vehicle group ([1]; Group 4 (10 mg/kg b.i.d.)): significant decrease | Mean body weight on the day of sacrifice compared to vehicle group ([1]; Groups 3, 5, 6): no significant differences | Macroscopic liver appearance (coloration) ([1]; as a function of increasing dose): substantially less yellow in color | Agonist activity ([2]; hybrid FXR receptor): not show agonistic activity | Antagonist activity ([2]; hybrid FXR receptor): nor significant antagonistic activity | Cytotoxicity in the antagonist assays [2]: does not show evidence of cytotoxicity | Plasma ALT ([3]; 5 mg/kg q.d.): 52 ± 78 U/L | Plasma IL-22 ([3]; 5 mg/kg q.d.): 31.8 ± 1.6 pg/mL | Plasma insulin ([3]; 5 mg/kg q.d.): 0.25 ± 0.10 ng/mL | Plasma MIF ([3]; 5 mg/kg q.d., 5 mg/kg): no statistically significant differences | Plasma MIF ([3]; 5 mg/kg q.d., listed as SOLI, 5 mg/kg): 4665 ± 2131 pg/mL | Plasma ALT ([3]; 10 mg/kg b.i.d.): 31 ± 19 U/L | Plasma IL-22 ([3]; 10 mg/kg b.i.d.): 33.0 ± 5.0 pg/mL | Plasma insulin ([3]; 10 mg/kg b.i.d.): 0.41 ± 0.35 ng/mL | Plasma MIF ([3]; 10 mg/kg b.i.d., 10 mg/kg): no statistically significant differences | Plasma MIF ([3]; 10 mg/kg b.i.d., listed as SOLI, 10 mg/kg): 4852 ± 1720 pg/mL | Plasma ALT ([3]; 25 mg/kg b.i.d.): 34 ± 14 U/L | Plasma IL-22 ([3]; 25 mg/kg b.i.d.): 33.8 ± 7.2 pg/mL | Plasma insulin ([3]; 25 mg/kg b.i.d.): 0.41 ± 0.22 ng/mL | Plasma MIF ([3]; 25 mg/kg b.i.d., 25 mg/kg): significantly increased | Plasma MIF ([3]; 25 mg/kg b.i.d., listed as SOLI, 25 mg/kg): 11748 ± 7633 pg/mL | Plasma IL-22 levels compared to vehicle group ([3]; any doses): no statistically significant differences | Plasma insulin levels compared to vehicle group ([3]; any doses): no statistically significant differences; also recorded: not significantly affected | Plasma ALT levels compared to vehicle group ([3]; any doses (Groups 3-6)): no significant differences | Whole Blood Glucose Levels ([3]; 5 mg/kg q.d. oral, 5 mg/kg): no statistically significant differences | Whole Blood Glucose Levels ([3]; 5 mg/kg q.d. oral, listed as SOLI, 5 mg/kg): 726 ± 101 mg/dL | Whole Blood Glucose Levels [3, 4]: 726 ± 101 mg/dL | Whole Blood Glucose Levels ([3]; 10 mg/kg b.i.d. oral, 10 mg/kg): no statistically significant differences | Whole Blood Glucose Levels ([3]; 10 mg/kg b.i.d. oral, listed as SOLI, 10 mg/kg): 713 ± 172 mg/dL | Whole Blood Glucose Levels [3, 5]: 713 ± 172 mg/dL | Whole Blood Glucose Levels ([3]; 25 mg/kg b.i.d. oral, 25 mg/kg): Statistically significant blood glucose decrease | Whole Blood Glucose Levels ([3]; 25 mg/kg b.i.d. oral, listed as SOLI, 25 mg/kg): 497 ± 259 mg/dL | Whole Blood Glucose Levels [3, 6]: 497 ± 259 mg/dL | Whole Blood Glucose Levels ([3]; 50 mg/kg q.d. oral, 50 mg/kg): Statistically significant blood glucose decrease | Whole Blood Glucose Levels ([3]; 50 mg/kg q.d. oral, listed as Solithromycin, 50 mg/kg): 380 ± 170 mg/dL
